Source: patent US10597388B2, “Pyridazinone herbicides” (FMC CORPORATION, priority 2014, dated 2020)

Key:
Type in all cases: in vivo
corn (Zea mays) = experiment: Test C greenhouse herbicide test, pre- and postemergence
Method in brief: (§1)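 Visual 0–100 injury score (100 = complete control) taken against untreated controls after 13–15 d in greenhouse. Test chemicals, formulated in solvent plus surfactant, applied preemergence to seeds in loam–sand soil or postemergence to 1- to 4-leaf plants (2–18 cm).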

[1] = tested on: ryegrass, Italian (Italian ryegrass, Lolium multiflorum); experiment: as above
Method in brief: as §1

[2] = tested on: galium (catchweed bedstraw, Galium aparine); experiment: Test A greenhouse herbicide test, postemergence; conditions: for Plant response rating, Galium: 125 g ai/ha, 0 to 100 scale where 0 is no effect and 100 is complete control; for Galium plant response rating: 500 g ai/ha, 0 to 100 scale, 0 is no effect, 100 is complete control
Method in brief: (§2)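 Scores are visual injury ratings from 0 (no effect) to 100 (complete control) versus untreated plants, taken roughly 10 d after treatment in the greenhouse. Treatment was postemergence, on one- to two-leaf plants 2–10 cm high growing in a loam soil/sand mix.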

[3] = tested on: blackgrass (Alopecurus myosuroides); experiment: Test A greenhouse herbicide test, postemergence; conditions: for Plant response rating, Blackgrass: 125 g ai/ha, 0 to 100 scale where 0 is no effect and 100 is complete control; for Blackgrass plant response rating: 500 g ai/ha, 0 to 100 scale, 0 is no effect, 100 is complete control
Method in brief: as §2

[4] = tested on: ryegrass, Italian (Italian ryegrass, Lolium multiflorum); experiment: Test A greenhouse herbicide test, pre- and postemergence
Method in brief: (§3)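 Visual injury ratings, 0 (no effect) to 100 (complete control), versus untreated plants after roughly 10 d in a greenhouse. Compounds, formulated in a surfactant-containing non-phytotoxic solvent, were sprayed on loam–sand soil after sowing (pre) or on one- to two-leaf plants 2–10 cm tall (post).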

[5] = tested on: ragweed (common ragweed, Ambrosia elatior); experiment: as above
Method in brief: as §3

[6] = tested on: wheat (Triticum aestivum); experiment: as above; conditions: Postemergence; for Plant response rating, Wheat: 125 g ai/ha, 0 to 100 scale where 0 is no effect and 100 is complete control; for Wheat plant response rating: 500 g ai/ha, 0 to 100 scale, 0 is no effect, 100 is complete control
Method in brief: as §3

[7] = tested on: pigweed (Amaranthus retroflexus); experiment: as above
Method in brief: as §3

[8] = tested on: foxtail, giant (giant foxtail, Setaria faberii); experiment: as above
Method in brief: as §3

[9] = tested on: barnyardgrass (Echinochloa crus-galli); experiment: as above
Method in brief: as §3

kochia (Kochia scoparia) = experiment: as above
Method in brief: as §3

[10] = Postemergence, 31 g ai/ha, 0 to 100 scale (0 no effect, 100 complete control)
[11] = Postemergence, 125 g ai/ha, scale 0 to 100, 0 is no effect, 100 is complete control
[12] = Postemergence, 250 g ai/ha, scale 0 to 100, 0 no effect, 100 complete control, 13 to 15 d
[13] = postemergence, 62 g ai/ha, scale 0 to 100, 0 no effect, 100 complete control
[14] = Postemergence, 125 g ai/ha, 0 to 100 scale where 0 is no effect and 100 is complete control
[15] = Postemergence, 500 g ai/ha, 0 to 100 scale, 0 is no effect, 100 is complete control
[16] = Preemergence, 125 g ai/ha, 0 to 100 scale where 0 is no effect and 100 is complete control
[17] = Preemergence, 500 g ai/ha, 0 to 100 scale, 0 no effect, 100 complete control
[18] = Preemergence, 31 g ai/ha, scale 0 to 100, 0 is no effect, 100 is complete control
[19] = Preemergence, 62 g ai/ha, scale 0 to 100, 0 is no effect, 100 is complete control
[20] = Preemergence, 125 g ai/ha, scale 0 to 100, 0 is no effect, 100 is complete control
[21] = Preemergence, 250 g ai/ha, scale 0 to 100 (0 no effect, 100 complete control)

SMILES: Cc1ccc(-c2c(O)c(Br)nn(C)c2=O)c2ccccc12 [Compound 52]
- Corn plant response rating (corn (Zea mays); [10]): 0
- Plant response rating, Corn (corn (Zea mays); [11]): 0
- Plant response rating, Corn (corn (Zea mays); [12]): 0
- Corn plant response rating (corn (Zea mays); [13]): 0
- Ryegrass, Italian plant response rating [1, 10]: 10
- Plant response rating, Ryegrass, Italian [1, 11]: 45
- Plant response rating, Ryegrass, Italian [1, 12]: 60
- Ryegrass, Italian plant response rating [1, 13]: 40
- Plant response rating, Galium [2]: 100
- Galium plant response rating [2]: 100
- Plant response rating, Blackgrass [3]: 20
- Blackgrass plant response rating [3]: 30
- Plant response rating, Ryegrass, Italian [4, 14]: 70
- Ryegrass, Italian plant response rating [4, 15]: 80
- Ryegrass, Italian plant response rating [4, 16]: 80
- Plant response rating, Ryegrass, Italian [4, 17]: 80
- Plant response rating, Ragweed [5, 14]: 90
- Ragweed plant response rating [5, 15]: 100
- Ragweed plant response rating [5, 16]: 20
- Plant response rating, Ragweed [5, 17]: 80
- Plant response rating, Wheat [6]: 0
- Wheat plant response rating [6]: 0
- Plant response rating, Pigweed [7, 14]: 10
- Pigweed plant response rating [7, 15]: 30
- Pigweed plant response rating [7, 16]: 10
- Plant response rating, Pigweed [7, 17]: 60
- Plant response rating, Foxtail, Giant [8, 14]: 40
- Foxtail, Giant plant response rating [8, 15]: 50
- Foxtail, Giant plant response rating [8, 16]: 40
- Plant response rating, Foxtail, Giant [8, 17]: 60
- Plant response rating, Barnyardgrass [9, 14]: 10
- Barnyardgrass plant response rating [9, 15]: 50
- Barnyardgrass plant response rating [9, 16]: 50
- Plant response rating, Barnyardgrass [9, 17]: 70
- Plant response rating, Kochia (kochia (Kochia scoparia); [14]): 40
- Kochia plant response rating (kochia (Kochia scoparia); [15]): 100
- Kochia plant response rating (kochia (Kochia scoparia); [16]): 0
- Plant response rating, Kochia (kochia (Kochia scoparia); [17]): 80

SMILES: COc1nn(C)c(=O)c(-c2c(C)ccc3ccccc23)c1O [Compound 54]
- Corn plant response rating (corn (Zea mays); [10]): 0
- Plant response rating, Corn (corn (Zea mays); [11]): 5
- Plant response rating, Corn (corn (Zea mays); [12]): 10
- Plant response rating, Corn (corn (Zea mays); [18]): 0
- Plant response rating, Corn (corn (Zea mays); [19]): 10
- Plant response rating, Corn (corn (Zea mays); [20]): 10
- Corn plant response rating (corn (Zea mays); [21]): 0
- Corn plant response rating (corn (Zea mays); [13]): 0
- Ryegrass, Italian plant response rating [1, 10]: 50
- Plant response rating, Ryegrass, Italian [1, 11]: 85
- Plant response rating, Ryegrass, Italian [1, 12]: 80
- Plant response rating, Ryegrass, Italian [1, 18]: 55
- Plant response rating, Ryegrass, Italian [1, 19]: 50
- Plant response rating, Ryegrass, Italian [1, 20]: 80
- Ryegrass, Italian plant response rating [1, 21]: 90
- Ryegrass, Italian plant response rating [1, 13]: 80
- Plant response rating, Galium [2]: 100
- Galium plant response rating [2]: 100
- Plant response rating, Blackgrass [3]: 20
- Blackgrass plant response rating [3]: 40
- Plant response rating, Ryegrass, Italian [4, 14]: 60
- Ryegrass, Italian plant response rating [4, 15]: 100
- Ryegrass, Italian plant response rating [4, 16]: 30
- Plant response rating, Ryegrass, Italian [4, 17]: 100
- Plant response rating, Ragweed [5, 14]: 100
- Ragweed plant response rating [5, 15]: 100
- Ragweed plant response rating [5, 16]: 90
- Plant response rating, Ragweed [5, 17]: 100
- Plant response rating, Wheat [6]: 20
- Wheat plant response rating [6]: 20
- Plant response rating, Pigweed [7, 14]: 90
- Pigweed plant response rating [7, 15]: 100
- Pigweed plant response rating [7, 16]: 100
- Plant response rating, Pigweed [7, 17]: 100
- Plant response rating, Foxtail, Giant [8, 14]: 60
- Foxtail, Giant plant response rating [8, 15]: 90
- Foxtail, Giant plant response rating [8, 16]: 60
- Plant response rating, Foxtail, Giant [8, 17]: 100
- Plant response rating, Barnyardgrass [9, 14]: 30
- Barnyardgrass plant response rating [9, 15]: 90
- Barnyardgrass plant response rating [9, 16]: 40
- Plant response rating, Barnyardgrass [9, 17]: 90
- Plant response rating, Kochia (kochia (Kochia scoparia); [14]): 100
- Kochia plant response rating (kochia (Kochia scoparia); [15]): 100
- Kochia plant response rating (kochia (Kochia scoparia); [16]): 50
- Plant response rating, Kochia (kochia (Kochia scoparia); [17]): 100
